From the supplement of paper PMC7661543
± gives the standard deviation of the averaged measurements.

Key:
Assay in all cases: relative cell number vs DMSO control (72 h) (% of DMSO); higher = less growth inhibition (more cells)
Settings in all cases: sgRNA knockout: sgNT
BT-20 = test system: BT-20
Experimental: (§1)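 QMAP-Seq: a pool of 5 breast cancer cell lines (ZR-75-1, SKBR3, HCC-38, MDA-MB-231, BT-20), each carrying 12 doxycycline-inducible Cas9 sgRNA perturbations (11 knockouts plus non-targeting sgNT), was treated with compounds for 72 h at four 10-fold doses (10 nM-10 uM or 1 nM-1 uM range). Barcodes were amplified and sequenced, and cell number was interpolated from 293T spike-in standard curves. The result is expressed as % of the median of DMSO wells. Two biological replicates.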

HCC-38 = test system: HCC-38
Experimental: as §1

MDA-MB-231 = test system: MDA-MB-231
Experimental: as §1

SKBR3 = test system: SKBR3
Experimental: as §1

ZR-75-1 = test system: ZR-75-1
Experimental: as §1

| SMILES | relative cell number (BT-20; 10 nM) | relative cell number (BT-20; 100 nM) | relative cell number (BT-20; 1000 nM) | relative cell number (BT-20; 10000 nM) | relative cell number (HCC-38; 10 nM) | relative cell number (HCC-38; 100 nM) | relative cell number (HCC-38; 1000 nM) | relative cell number (HCC-38; 10000 nM) | relative cell number (MDA-MB-231; 10 nM) | relative cell number (MDA-MB-231; 100 nM) | relative cell number (MDA-MB-231; 1000 nM) | relative cell number (MDA-MB-231; 10000 nM) | relative cell number (SKBR3; 10 nM) | relative cell number (SKBR3; 100 nM) | relative cell number (SKBR3; 1000 nM) | relative cell number (SKBR3; 10000 nM) | relative cell number (ZR-75-1; 10 nM) | relative cell number (ZR-75-1; 100 nM) | relative cell number (ZR-75-1; 1000 nM) | relative cell number (ZR-75-1; 10000 nM) |
| --- | --- | --- | --- | --- | --- | --- | --- | --- | --- | --- | --- | --- | --- | --- | --- | --- | --- | --- | --- | --- |
| CCCc1nn(C)c2c(=O)[nH]c(-c3cc(S(=O)(=O)N4CCN(C)CC4)ccc3OCC)nc12 [Sildenafil] | 95.7 ± 16 | 110 ± 2.7 | 95.2 ± 0.97 | 107 ± 3.9 | 89.5 ± 15 | 92.7 ± 4.1 | 103 ± 9.7 | 124 ± 18 | 114 ± 8.2 | 85 ± 15 | 97.7 ± 22 | 57.1 ± 8.9 | 82.23 ± 0.8 | 91.7 ± 25 | 62.7 ± 0.37 | 68.1 ± 16 | 105 ± 9.5 | 117 ± 58 | 86.3 ± 26 | 57.6 ± 2.1 |
| CCC(C)(C)C(=O)O[C@H]1C[C@@H](C)C=C2C=C[C@H](C)[C@H](CC[C@@H]3C[C@@H](O)CC(=O)O3)[C@H]21 [Simvastatin] | 108 ± 18 | 72.5 ± 13 | 89.7 ± 26 | 91.4 ± 19 | 90.5 ± 2.1 | 96 ± 21 | 103 ± 12 | 87.5 ± 13 | 130 ± 20 | 115 ± 28 | 82.6 ± 8.9 | 34.2 ± 13 | 95.7 ± 4.9 | 60.8 ± 3.1 | 113 ± 23 | 66.7 ± 15 | 95.6 ± 57 | 75.2 ± 6 | 109 ± 39 | 75.6 ± 20 |
| N[C@@H](CC(=O)N1CCn2c(nnc2C(F)(F)F)C1)Cc1cc(F)c(F)cc1F [Sitagliptin] | 107 ± 24 | 90.6 ± 5.2 | 74.2 ± 14 | 123 ± 24 | 106 ± 10 | 99.2 ± 12 | 106 ± 5 | 92.2 ± 1.9 | 114 ± 63 | 86.6 ± 14 | 113 ± 32 | 120 ± 77 | 87.3 ± 2.4 | 89.5 ± 3.5 | 82.6 ± 2.9 | 89.8 ± 3.9 | 118 ± 6.4 | 84.6 ± 64 | 124 ± 34 | 96.5 ± 5.2 |
| CNC(=O)c1cc(Oc2ccc(NC(=O)Nc3ccc(Cl)c(C(F)(F)F)c3)cc2)ccn1 [Sorafenib] | 116 ± 3.8 | 100 ± 13 | 108 ± 36 | 50.8 ± 8.9 | 97.1 ± 9.2 | 133 ± 45 | 124 ± 8.8 | 54.6 ± 2.4 | 86.7 ± 5 | 93 ± 8.3 | 90.7 ± 10 | 41.1 ± 4.4 | 102 ± 4.4 | 97.1 ± 4.3 | 106 ± 2.8 | 47.8 ± 11 | 70.2 ± 11 | 104 ± 2.9 | 87.4 ± 19 | 41.7 ± 17 |
| Fc1ccc(CNc2ncnc3ccc(F)cc23)cc1 [Spautin1] | 96.8 ± 34 | 86 ± 36 | 89.8 ± 13 | 88.6 ± 19 | 104 ± 8 | 99.2 ± 11 | 111 ± 3.9 | 106 ± 1.6 | 124 ± 29 | 97 ± 34 | 77.7 ± 26 | 74.8 ± 8 | 87.9 ± 40 | 85.3 ± 0.86 | 87.4 ± 8.4 | 92 ± 23 | 55.6 ± 14 | 70.6 ± 3.6 | 94.4 ± 13 | 49.3 ± 9.3 |
| CC(C)n1cnc2c(NCCc3ccc(O)cc3)nc(-c3csc4ccccc34)nc21 [StemRegenin1] | 98.5 ± 13 | 115 ± 20 | 94.3 ± 36 | 55 ± 7.7 | 90 ± 7.6 | 116 ± 2.2 | 104 ± 2.8 | 86 ± 4 | 101 ± 24 | 97.5 ± 25 | 132 ± 74 | 75.9 ± 11 | 103 ± 9 | 108 ± 14 | 85.7 ± 28 | 29.6 ± 8.4 | 65.1 ± 15 | 135 ± 5.4 | 153 ± 85 | 30.4 ± 12 |
| NC(=O)Nc1sc(-c2ccc(F)cc2)cc1C(N)=O [TPCA1] | 119 ± 19 | 101 ± 34 | 102.8 ± 0.57 | 69.2 ± 3.1 | 90.2 ± 2.3 | 94.5 ± 5.5 | 100 ± 6.1 | 74.1 ± 4.5 | 111 ± 21 | 127 ± 23 | 130 ± 4.7 | 69.6 ± 7.9 | 92.2 ± 32 | 93.1 ± 17 | 102 ± 8.7 | 54.5 ± 1.1 | 104 ± 42 | 94.7 ± 6 | 99.5 ± 6.5 | 43.1 ± 5.7 |
| C=CC[C@@H]1/C=C(\C)C[C@H](C)C[C@H](OC)[C@H]2O[C@@](O)(C(=O)C(=O)N3CCCC[C@H]3C(=O)O[C@H](/C(C)=C/[C@@H]3CC[C@@H](O)[C@H](OC)C3)[C@H](C)[C@@H](O)CC1=O)[C@H](C)C[C@@H]2OC [Tacrolimus] | 110 ± 2.2 | 105 ± 4.6 | 101 ± 16 | 120 ± 26 | 117 ± 8.4 | 99.57 ± 0.7 | 115 ± 14 | 114 ± 5.7 | 133 ± 27 | 106 ± 7.6 | 96.7 ± 7 | 135 ± 12 | 108 ± 22 | 90.6 ± 11 | 101 ± 17 | 128.1 ± 0.39 | 108 ± 7.9 | 91.5 ± 29 | 85.6 ± 18 | 92.8 ± 28 |
| Cn1nnc2c(C(N)=O)ncn2c1=O [Temozolomide] | 106 ± 24 | 111 ± 30 | 111 ± 14 | 132 ± 37 | 115 ± 2.3 | 89.6 ± 1.4 | 113 ± 6.5 | 137 ± 26 | 125 ± 13 | 108 ± 27 | 89 ± 25 | 101.6 ± 0.8 | 111 ± 8.3 | 84.7 ± 20 | 104 ± 27 | 96.1 ± 40 | 89.66 ± 0.62 | 103 ± 16 | 81.7 ± 5.9 | 86.6 ± 3.4 |
| COc1cc([C@@H]2c3cc4c(cc3[C@@H](O[C@@H]3O[C@@H]5CO[C@@H](c6cccs6)O[C@H]5[C@H](O)[C@H]3O)[C@H]3COC(=O)[C@H]23)OCO4)cc(OC)c1O [Teniposide] | 98.2 ± 1.9 | 67.9 ± 24 | 51.2 ± 5.6 | 22.6 ± 5.8 | 87.1 ± 7.7 | 43 ± 5.7 | 25.52 ± 0.049 | 13.4 ± 2 | 75.8 ± 16 | 25.4 ± 1.1 | 11 ± 1.3 | 11.2 ± 4.8 | 101 ± 6.8 | 26.4 ± 3.2 | 18.4 ± 2.3 | 15.9 ± 0.19 | 55.8 ± 2.6 | 31.4 ± 6.7 | 29.9 ± 8.2 | 26.1 ± 0.97 |
| O=C1CCC(N2C(=O)c3ccccc3C2=O)C(=O)N1 (stereo not given) [Thalidomide] | 118 ± 11 | 91 ± 0.81 | 114 ± 18 | 113 ± 9 | 108 ± 8.4 | 95.3 ± 1.2 | 117 ± 4.4 | 115 ± 10 | 128 ± 37 | 74.8 ± 24 | 102 ± 29 | 124 ± 19 | 109 ± 39 | 59.4 ± 1.9 | 115 ± 17 | 106 ± 2.4 | 79.7 ± 19 | 90.8 ± 6.8 | 74.2 ± 13 | 97.2 ± 55 |
